The target of this test is T1, human FSH receptor (Homo sapiens, UniProt P23945).
T1 construct: expressed in transfected cells; host or cells: Chinese Hamster Ovary (CHO) cells, stably transfected, cotransfected with CRE/promotor-firefly luciferase reporter
T1 sequence (P23945 18-695): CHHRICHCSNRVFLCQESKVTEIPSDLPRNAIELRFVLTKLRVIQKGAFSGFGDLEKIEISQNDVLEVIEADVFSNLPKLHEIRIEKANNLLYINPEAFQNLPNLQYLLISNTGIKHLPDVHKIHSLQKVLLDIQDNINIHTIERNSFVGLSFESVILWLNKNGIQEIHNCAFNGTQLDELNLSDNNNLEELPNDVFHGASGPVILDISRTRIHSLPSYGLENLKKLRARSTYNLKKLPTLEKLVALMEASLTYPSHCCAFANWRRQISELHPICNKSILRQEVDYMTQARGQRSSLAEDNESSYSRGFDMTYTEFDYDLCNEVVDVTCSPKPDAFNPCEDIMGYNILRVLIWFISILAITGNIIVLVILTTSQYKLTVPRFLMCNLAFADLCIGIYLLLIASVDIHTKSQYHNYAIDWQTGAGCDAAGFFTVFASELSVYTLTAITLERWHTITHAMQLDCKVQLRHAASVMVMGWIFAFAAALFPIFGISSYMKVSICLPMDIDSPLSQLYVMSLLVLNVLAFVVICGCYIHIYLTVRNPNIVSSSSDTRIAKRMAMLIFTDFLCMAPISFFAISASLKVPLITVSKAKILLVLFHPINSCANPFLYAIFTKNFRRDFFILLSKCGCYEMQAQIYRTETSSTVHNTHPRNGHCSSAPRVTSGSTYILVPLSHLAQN
The test is described as follows: Agonistic activity of compounds at the human FSH receptor expressed in CHO cells, CRE/luciferase reporter (hFSHRago (CHO luc)). The class given is cell-based. As to conditions: CHO cells stably transfected with the human FSH receptor and CRE/firefly luciferase reporter; 4 hours of incubation; half-maximal stimulation relative to the compound's own maximal effect; read-out: hFSHRago (CHO luc) EC50. The text has this: The term EC50 means the concentration of the test compound that elicits half-maximal (50 %) stimulation compared to the compound's maximally attainable effect. The values can be determined e.g. in a cell line transfected with a FSH receptor gene and cotransfected with a cAMP responsive element/promoter directing the expression of a reporter gene. Values can be determined using a software program such as MathIQ (version 2.0, ID Business Solutions Limited).
Agonistic activity of the compounds at the human FSH receptor was determined in Chinese Hamster Ovary (CHO) cells stably transfected with the human FSH receptor and cotransfected with a cAMP responsive element (CRE)/promotor directing the expression of a firefly luciferase reporter gene. Binding of the compounds to the Gs protein-coupled FSH receptor will result in an increase of cAMP, which in turn will induce an increased transactivation of the luciferase reporter. Cells (7,500 cells/well of a 384 well plate) were incubated in Dulbecco' minimal essential F12 modified medium (Invitrogen), supplemented with 1 µg/ml bovine insulin, 5 µg/ml human apo-transferrin, 80 U/ml penicillin G and 80 µg/ml streptomycin with the test compounds (concentration between 0.0316 nM and 10.0 µM) in duplicate in a humidified atmosphere (95%) at 5-7% CO2 and 37°C. The final concentration of DMSO was 1%. After 4 hours of incubation, plates were allowed to adjust to room temperature for 1 hour. Then, Luclite (PerkinElmer) solution was added to the wells and cells were allowed to lyse for at least 1 hour at room temperature. Subsequently, luciferase activity was measured in a luminescence counter. The signal is expressed as counts per second (cps). The EC50 (concentration of the test compound that elicits half-maximal (50 %) luciferase stimulation compared to the compound's maximally attainable effect) and efficacy values (maximal effect of the test compound as percentage of the maximal effect of recombinant human FSH) of the compounds were determined using the software program MathIQ (version 2.0, ID Business Solutions Limited). EC50 data are indicated at the synthesis examples.
(In general: A reporter such as luciferase makes a cellular process visible.)

For orientation: EC50 means the concentration giving half of the maximal effect. As for `COc1cc2c(cc1OC)-c1c(-c3ccccc3)nc(C(=O)N3CCCCCC3)n1CC2` [Example 49d, Azepan-1-yl-(8,9-dimethoxy-1-phenyl-5,6-dihydro-imidazo[5,1-a]isoquinolin-3-yl)-methanone], the EC50 amounted to 630 nM. For `COc1cc2c(cc1NC(=O)C(C)C)-c1c(-c3cccs3)nc(C(=O)N(C)C(C)(C)C)n1CC2` [Example 46, 9-Isobutyrylamino-8-methoxy-1-thiophen-2-yl-5,6-dihydro-imidazo[5,1-a]isoquinoline-3-carboxylic acid tert-butyl-methyl-amide], the EC50 is 148 nM.

With `COc1cc2c(cc1-c1cccc(N3CCOCC3)c1)-c1c(-c3cccs3)nc(C(=O)N(C)C(C)(C)C)n1CC2` [Example 2h, 8-Methoxy-9-(3-morpholin-4-yl-phenyl)-1-thiophen-2-yl-5,6-dihydro-imidazo[5,1-a]iso-quinoline-3-carboxylic acid tert-butyl-methyl-amide], the EC50 worked out at 2 nM. Take `COc1cc2c(cc1OC(C)C)-c1c(-c3cccs3)nc(C(=O)N3CCCC3(C)C)n1CC2` [Example 22, (2,2-Dimethyl-pyrrolidin-1-yl)-(9-isopropoxy-8-methoxy-1-thiophen-2-yl-5,6-dihydro-imidazo[5,1-a]isoquinolin-3-yl)-methanone]: the EC50 was determined as 3 nM.

For the molecule `COc1cc2c(cc1NC(=O)c1nccs1)-c1c(-c3cccs3)nc(C(=O)N(C)C(C)(C)C)n1CC2` [Example 10, 8-Methoxy-9-[(thiazole-2-carbonyl)-amino]-1-thiophen-2-yl-5,6-dihydro-imidazo[5,1-a]isoquinoline-3-carboxylic acid tert-butyl-methyl-amide], the EC50 was found to be 12 nM.

For `COc1cc2c(cc1-c1ccc3c(c1)OCO3)-c1c(-c3cccs3)nc(C(=O)N(C)C(C)(C)C)n1CC2` [Example 2r, 9-Benzo[1,3]dioxol-5-yl-8-methoxy-1-thiophen-2-yl-5,6-dihydro-imidazo[5,1-a]iso-quinoline-3-carboxylic acid tert-butyl-methyl-amide], the EC50 is 167 nM. The figure for `COc1cc2c(cc1-c1ccccc1C#N)-c1c(-c3cccs3)nc(C(=O)N(C)C(C)(C)C)n1CC2` [Example 2j, 9-(2-Cyano-phenyl)-8-methoxy-1-thiophen-2-yl-5,6-dihydro-imidazo[5,1-a]isoquinoline-3-carboxylic acid tert-butyl-methyl-amide] is 5 nM. On to `COc1cccc(Oc2cc3c(cc2OC)CCn2c(C(=O)N(C)C(C)(C)C)nc(-c4cccs4)c2-3)c1` [Example 43b, 8-Methoxy-9-(3-methoxy-phenoxy)-1-thiophen-2-yl-5,6-dihydro-imidazo[5,1-a]isoquinoline-3-carboxylic acid tert-butyl-methyl-amide], for which the EC50 is 447 nM. `CCc1nnc(NC(=O)c2cc3c(cc2OC)CCn2c(C(=O)N(C)C(C)(C)C)nc(-c4cccs4)c2-3)s1` [Example 4, 8-Methoxy-1-thiophen-2-yl-5,6-dihydro-imidazo[5,1-a]isoquinoline-3,9-dicarboxylic acid 3-(tert-butyl-methyl-amide) 9-[(5-ethyl-[1,3,4]thiadiazol-2-yl)-amide]]: the concentration for a half-maximal effect (EC50) came out at 58 nM. For the molecule `COc1cc2c(cc1C(=O)NC(C)C)-c1c(-c3cccs3)nc(C(=O)N(C)C(C)(C)C)n1CC2` [Example 5, 8-Methoxy-1-thiophen-2-yl-5,6-dihydro-imidazo[5,1-a]isoquinoline-3,9-dicarboxylic acid 3-(tert-butyl-methyl-amide) 9-isopropylamide], the EC50 is 18 nM.

For `COc1cc2c(cc1N)-c1c(-c3cccs3)nc(C(=O)N(C)C(C)(C)C)n1CC2` [Example 6b, 9-Amino-8-methoxy-1-thiophen-2-yl-5,6-dihydro-imidazo[5,1-a]isoquinoline-3-carboxylic acid tert-butyl-methyl-amide], the EC50 was 740 nM. On to `COc1cc2c(cc1C(=O)Nc1nncs1)-c1c(-c3cccs3)nc(C(=O)N(C)C(C)(C)C)n1CC2` [Example 3e, 8-Methoxy-1-thiophen-2-yl-5,6-dihydro-imidazo[5,1-a]isoquinoline-3,9-dicarboxylic acid 3-(tert-butyl-methyl-amide) 9-[1,3,4]thiadiazol-2-ylamide], for which the EC50 is 3 nM.

As for `COc1cc2c(cc1OCCO)-c1c(-c3cccs3)nc(C(=O)N(C)C(C)(C)C)n1CC2` [Example 30c, 9-(2-Hydroxy-ethoxy)-8-methoxy-1-thiophen-2-yl-5,6-dihydro-imidazo[5,1-a]isoquinoline-3-carboxylic acid tert-butyl-methyl-amide], the EC50 is 7 nM.

`COc1cc2c(cc1NC(=O)c1cscn1)-c1c(-c3cccs3)nc(C(=O)N(C)C(C)(C)C)n1CC2` [Example 11, 8-Methoxy-9-[(thiazole-4-carbonyl)-amino]-1-thiophen-2-yl-5,6-dihydro-imidazo[5,1-a]isoquinoline-3-carboxylic acid tert-butyl-methyl-amide]: the EC50 amounted to 13 nM.

Turning to `COc1cc2c(cc1OC(C)C)-c1c(-c3cccs3)nc(C(=O)N3CC4CC(CN(C(C)=O)C4)C3)n1CC2` [Example 29c, 1-[7-(9-Isopropoxy-8-methoxy-1-thiophen-2-yl-5,6-dihydro-imidazo[5,1-a]isoquinoline-3-carbonyl)-3,7-diaza-bicyclo[3.3.1]non-3-yl]-ethanone], the EC50 came out at 21 nM. Then `COc1cc2c(cc1-c1cccc(N3CCN(C(=O)OC(C)(C)C)CC3)c1)-c1c(-c3cccs3)nc(C(=O)N(C)C(C)(C)C)n1CC2` [Example 2o], with 14 nM. Turning to `COc1cc2c(cc1OC)-c1c(-c3cccs3)nc(C(=O)N3CCCOCC3)n1CC2` [Example 26, (8,9-Dimethoxy-1-thiophen-2-yl-5,6-dihydro-imidazo[5,1-a]isoquinolin-3-yl)-[1,4]oxazepan-4-yl-methanone], the EC50 is 314 nM. Then `COc1cc2c(cc1CC(C)C)-c1c(-c3cccs3)nc(C(=O)N(C)C(C)(C)C)n1CC2` [Example 18k, 9-Isobutyl-8-methoxy-1-thiophen-2-yl-5,6-dihydro-imidazo[5,1-a]isoquinoline-3-carboxylic acid tert-butyl-methyl-amide], with 8 nM; and `COc1cc2c(cc1C=C(C)C)-c1c(-c3cccs3)nc(C(=O)N(C)C(C)(C)C)n1CC2` [Example 36c, 8-Methoxy-9-(2-methyl-propenyl)-1-thiophen-2-yl-5,6-dihydro-imidazo[5,1-a]isoquinoline-3-carboxylic acid tert-butyl-methyl-amide], with 2 nM; and `COc1ccccc1-c1cc2c(cc1OC)CCn1c(C(=O)N(C)C(C)(C)C)nc(-c3cccs3)c1-2` [Example 2q, 8-Methoxy-9-(2-methoxy-phenyl)-1-thiophen-2-yl-5,6-dihydro-imidazo [5,1-a]isoquinoline-3-carboxylic acid tert-butyl-methyl-amide], with 50 nM. Then `COc1cc2c(cc1CC(C)C)-c1c(-c3cncs3)nc(C(=O)N(C)C(C)(C)C)n1CC2` [Example 38, 9-Isobutyl-8-methoxy-1-thiazol-5-yl-5,6-dihydro-imidazo[5,1-a]isoquinoline-3-carboxylic acid tert-butyl-methyl-amide], with 13 nM. The figure for `CCN(C)CC(=O)Nc1cc2c(cc1OC)CCn1c(C(=O)N(C)C(C)(C)C)nc(-c3cccs3)c1-2` [Example 13b, 9-[2-(Ethyl-methyl-amino)-acetylamino]-8-methoxy-1-thiophen-2-yl-5,6-dihydro-imidazo[5,1-a]isoquinoline-3-carboxylic acid tert-butyl-methyl-amide] is 26 nM.

(Values after patent EP2435433B1, “(DIHYDRO)IMIDAZOISO[5,1-A]QUINOLINES AS FSH RECEPTOR AGONISTS FOR THE TREATMENT OF FERTILITY DISORDERS” (Merck Sharp & Dohme B.V., priority 2009, dated 2010).)
